Results reported in PubChem BioAssay AID1918945 (Molecular Pharmacology Branch, DTP, NCI, 2023).

Test system: 883617-216-R-J1-PDC complex spheroid viability
Test: Anticancer human tumor 883617-216-R-J1-PDC patient-derived bladder carcinoma cell line growth inhibition
Conditions: for IC50: curve of first compound; for viability, T/C: stronger effect = lower value; active means viability on the fitted dose curve at most 10% of control; inactive means the rest
Method in brief: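 Drug combinations with the LSD1 inhibitor iadademstat tested on tumor cells co-cultured as spheroids with endothelial cells and mesenchymal stem cells. Concentrations descended in half-log increments from clinical Cmax or 10 microM.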

[1] = second compound 0.1 µM, first compound 0.000316 µM
[2] = second compound 0.1 µM, first compound 0.001 µM
[3] = second compound 0.1 µM, first compound 0.00316 µM
[4] = second compound 0.1 µM, first compound 0.01 µM
[5] = second compound 0.1 µM, first compound 0.0316 µM
[6] = second compound 0.1 µM, first compound 0.1 µM
[7] = second compound 0.316 µM, first compound 0.000316 µM
[8] = second compound 0.316 µM, first compound 0.001 µM
[9] = second compound 0.316 µM, first compound 0.00316 µM
[10] = second compound 0.316 µM, first compound 0.01 µM
[11] = second compound 0.316 µM, first compound 0.0316 µM
[12] = second compound 0.316 µM, first compound 0.1 µM
[13] = second compound 1 µM, first compound 0.000316 µM
[14] = second compound 1 µM, first compound 0.001 µM
[15] = second compound 1 µM, first compound 0.00316 µM
[16] = second compound 1 µM, first compound 0.01 µM
[17] = second compound 1 µM, first compound 0.0316 µM
[18] = second compound 1 µM, first compound 0.1 µM
[19] = second compound 3.16 µM, first compound 0.000316 µM
[20] = second compound 3.16 µM, first compound 0.001 µM
[21] = second compound 3.16 µM, first compound 0.00316 µM
[22] = second compound 3.16 µM, first compound 0.01 µM
[23] = second compound 3.16 µM, first compound 0.0316 µM
[24] = second compound 3.16 µM, first compound 0.1 µM
[25] = second compound 10 µM, first compound 0.000316 µM
[26] = second compound 10 µM, first compound 0.001 µM
[27] = second compound 10 µM, first compound 0.00316 µM
[28] = second compound 10 µM, first compound 0.01 µM
[29] = second compound 10 µM, first compound 0.0316 µM
[30] = second compound 10 µM, first compound 0.1 µM
[31] = second compound 0.1 µM, first compound 0.00949 µM
[32] = second compound 0.1 µM, first compound 0.03 µM
[33] = second compound 0.1 µM, first compound 0.0949 µM
[34] = second compound 0.1 µM, first compound 0.3 µM
[35] = second compound 0.1 µM, first compound 0.949 µM
[36] = second compound 0.1 µM, first compound 3 µM
[37] = second compound 0.316 µM, first compound 0.00949 µM
[38] = second compound 0.316 µM, first compound 0.03 µM
[39] = second compound 0.316 µM, first compound 0.0949 µM
[40] = second compound 0.316 µM, first compound 0.3 µM
[41] = second compound 0.316 µM, first compound 0.949 µM
[42] = second compound 0.316 µM, first compound 3 µM
[43] = second compound 1 µM, first compound 0.00949 µM
[44] = second compound 1 µM, first compound 0.03 µM
[45] = second compound 1 µM, first compound 0.0949 µM
[46] = second compound 1 µM, first compound 0.3 µM
[47] = second compound 1 µM, first compound 0.949 µM
[48] = second compound 1 µM, first compound 3 µM
[49] = second compound 3.16 µM, first compound 0.00949 µM
[50] = second compound 3.16 µM, first compound 0.03 µM
[51] = second compound 3.16 µM, first compound 0.0949 µM
[52] = second compound 3.16 µM, first compound 0.3 µM
[53] = second compound 3.16 µM, first compound 0.949 µM
[54] = second compound 3.16 µM, first compound 3 µM
[55] = second compound 10 µM, first compound 0.00949 µM
[56] = second compound 10 µM, first compound 0.03 µM
[57] = second compound 10 µM, first compound 0.0949 µM
[58] = second compound 10 µM, first compound 0.3 µM
[59] = second compound 10 µM, first compound 0.949 µM
[60] = second compound 10 µM, first compound 3 µM
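Further: exposure lasted seven days after three days of spheroid growth.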
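Wherever viability, T/C is given: 100% = DMSO vehicle control luminescence.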

CC(C)CC(NC(=O)C(Cc1ccccc1)NC(=O)c1cnccn1)B(O)O (stereo not given) + NC1CCC(NC2CC2c2ccccc2)CC1
1.59 nM: IC50 (second compound 1 µM)
1.85 nM: IC50 (second compound 0.1 µM)
1.62 nM: IC50 (second compound 3.16 µM)
active: viability, T/C [4] 3.29% | viability, T/C [5] 2.15% | viability, T/C [6] 0.25% | viability, T/C [9] 8.98% | viability, T/C [10] 1.9% | viability, T/C [11] 0.32% | viability, T/C [12] 0.82% | viability, T/C [16] 1.21% | viability, T/C [17] 0.94% | viability, T/C [18] 0.72% | viability, T/C [21] 9.32% | viability, T/C [22] 1.86% | viability, T/C [23] 1.46% | viability, T/C [24] 0.83% | viability, T/C [27] 6.31% | viability, T/C [28] 0.91% | viability, T/C [29] 0.79% | viability, T/C [30] 0.32%
1.76 nM: IC50 (second compound 10 µM)
inactive: viability, T/C [1] 105% | viability, T/C [2] 92.2% | viability, T/C [3] 13.2% | viability, T/C [7] 112% | viability, T/C [8] 91.8% | viability, T/C [13] 108% | viability, T/C [14] 74.6% | viability, T/C [15] 13.2% | viability, T/C [19] 112% | viability, T/C [20] 79.6% | viability, T/C [25] 101% | viability, T/C [26] 92.5%
1.79 nM: IC50 (second compound 0.316 µM)

CC(C)CC(NC(=O)CNC(=O)c1cc(Cl)ccc1Cl)B1OC(=O)CC(CC(=O)O)(C(=O)O)O1 (stereo not given) + NC1CCC(NC2CC2c2ccccc2)CC1
6.46 nM: IC50 (second compound 1 µM)
6.36 nM: IC50 (second compound 0.1 µM)
inactive: viability, T/C [1] 101% | viability, T/C [2] 112% | viability, T/C [3] 74.7% | viability, T/C [4] 32.5% | viability, T/C [7] 108% | viability, T/C [8] 110% | viability, T/C [9] 86.4% | viability, T/C [10] 34.8% | viability, T/C [13] 101% | viability, T/C [14] 107% | viability, T/C [15] 83% | viability, T/C [16] 29% | viability, T/C [19] 101% | viability, T/C [20] 108% | viability, T/C [21] 75.8% | viability, T/C [22] 34.5% | viability, T/C [25] 111% | viability, T/C [26] 106% | viability, T/C [27] 79% | viability, T/C [28] 31.8%
7.23 nM: IC50 (second compound 0.316 µM)
6.58 nM: IC50 (second compound 3.16 µM)
6.38 nM: IC50 (second compound 10 µM)
active: viability, T/C [5] 11.9% | viability, T/C [6] 1.23% | viability, T/C [11] 11.1% | viability, T/C [12] 0.94% | viability, T/C [17] 10.3% | viability, T/C [18] 0.98% | viability, T/C [23] 9.37% | viability, T/C [24] 1.62% | viability, T/C [29] 4.25% | viability, T/C [30] 0.93%

COc1cc(Nc2ncc3c(n2)-c2ccc(Cl)cc2C(c2c(F)cccc2OC)=NC3)ccc1C(=O)O + NC1CCC(NC2CC2c2ccccc2)CC1
inactive: viability, T/C [3] 96.2% | viability, T/C [4] 77.3% | viability, T/C [5] 61.3% | viability, T/C [6] 53.3% | viability, T/C (second compound 0.1 µM, first compound 0.316 µM) 51.5% | viability, T/C (second compound 0.1 µM, first compound 1 µM) 50.7% | viability, T/C [9] 98.6% | viability, T/C [10] 81.1% | viability, T/C [11] 58.7% | viability, T/C [12] 53.3% | viability, T/C (second compound 0.316 µM, first compound 0.316 µM) 48.8% | viability, T/C (second compound 0.316 µM, first compound 1 µM) 49.1% | viability, T/C [15] 94.8% | viability, T/C [16] 75.7% | viability, T/C [17] 54.6% | viability, T/C [18] 49.4% | viability, T/C (second compound 1 µM, first compound 0.316 µM) 48.8% | viability, T/C (second compound 1 µM, first compound 1 µM) 53% | viability, T/C [21] 96.1% | viability, T/C [22] 83.7% | viability, T/C [23] 58.8% | viability, T/C [24] 50.8% | viability, T/C (second compound 3.16 µM, first compound 0.316 µM) 55.5% | viability, T/C (second compound 3.16 µM, first compound 1 µM) 56.2% | viability, T/C [27] 93.5% | viability, T/C [28] 75.5% | viability, T/C [29] 65.1% | viability, T/C [30] 58.1% | viability, T/C (second compound 10 µM, first compound 0.316 µM) 54.7% | viability, T/C (second compound 10 µM, first compound 1 µM) 51.1%
> 1000 nM: IC50 (second compound 0.1 µM) | IC50 (second compound 3.16 µM) | IC50 (second compound 10 µM)
322 nM: IC50 (second compound 1 µM)
262 nM: IC50 (second compound 0.316 µM)

Cn1ncnc1C1c2n[nH]c(=O)c3cc(F)cc(c23)NC1c1ccc(F)cc1 (stereo not given) + NC1CCC(NC2CC2c2ccccc2)CC1
> 100 nM: IC50 (second compound 0.1 µM) | IC50 (second compound 0.316 µM) | IC50 (second compound 1 µM) | IC50 (second compound 3.16 µM) | IC50 (second compound 10 µM)
inactive: viability, T/C [1] 110% | viability, T/C [2] 110% | viability, T/C [3] 103% | viability, T/C [4] 91.6% | viability, T/C [5] 68.5% | viability, T/C [6] 66.6% | viability, T/C [7] 113% | viability, T/C [8] 111% | viability, T/C [9] 97.6% | viability, T/C [10] 89.7% | viability, T/C [11] 72.7% | viability, T/C [12] 60% | viability, T/C [13] 112% | viability, T/C [14] 113% | viability, T/C [15] 99.2% | viability, T/C [16] 93.9% | viability, T/C [17] 67.3% | viability, T/C [18] 57.7% | viability, T/C [19] 101% | viability, T/C [20] 102% | viability, T/C [21] 99.2% | viability, T/C [22] 85.2% | viability, T/C [23] 69.2% | viability, T/C [24] 69.7% | viability, T/C [25] 107% | viability, T/C [26] 106% | viability, T/C [27] 108% | viability, T/C [28] 90.6% | viability, T/C [29] 72.8% | viability, T/C [30] 66.2%

NS(=O)(=O)OCC1CC(n2ccc3c(NC4CCc5ccccc54)ncnc32)CC1O (stereo not given) + NC1CCC(NC2CC2c2ccccc2)CC1
inactive: viability, T/C [31] 111% | viability, T/C [32] 121% | viability, T/C [33] 106% | viability, T/C [34] 59.8% | viability, T/C [35] 20.7% | viability, T/C [36] 15.2% | viability, T/C [37] 118% | viability, T/C [38] 113% | viability, T/C [39] 113% | viability, T/C [40] 73.8% | viability, T/C [41] 19.4% | viability, T/C [42] 15.6% | viability, T/C [43] 102% | viability, T/C [44] 116% | viability, T/C [45] 105% | viability, T/C [46] 67% | viability, T/C [47] 19.5% | viability, T/C [48] 14% | viability, T/C [49] 101% | viability, T/C [50] 106% | viability, T/C [51] 99.5% | viability, T/C [52] 73.8% | viability, T/C [53] 20.2% | viability, T/C [54] 13.7% | viability, T/C [55] 113% | viability, T/C [56] 117% | viability, T/C [57] 107% | viability, T/C [58] 58.9% | viability, T/C [59] 20.8% | viability, T/C [60] 14.6%
392 nM: IC50 (second compound 10 µM)
500 nM: IC50 (second compound 3.16 µM)
497 nM: IC50 (second compound 0.316 µM)
453 nM: IC50 (second compound 1 µM)
399 nM: IC50 (second compound 0.1 µM)

O=C(C=Cc1cccc(S(=O)(=O)Nc2ccccc2)c1)NO + NC1CCC(NC2CC2c2ccccc2)CC1
124 nM: IC50 (second compound 10 µM)
active: viability, T/C [36] 2.88% | viability, T/C [42] 2.02% | viability, T/C [48] 2.72% | viability, T/C [54] 2.63% | viability, T/C [60] 1.64%
139 nM: IC50 (second compound 1 µM) | IC50 (second compound 3.16 µM)
142 nM: IC50 (second compound 0.1 µM)
131 nM: IC50 (second compound 0.316 µM)
inactive: viability, T/C [31] 102% | viability, T/C [32] 92.8% | viability, T/C [33] 55.3% | viability, T/C [34] 31.2% | viability, T/C [35] 20.7% | viability, T/C [37] 108% | viability, T/C [38] 98.6% | viability, T/C [39] 50% | viability, T/C [40] 31.7% | viability, T/C [41] 20.9% | viability, T/C [43] 95.7% | viability, T/C [44] 84.3% | viability, T/C [45] 57.4% | viability, T/C [46] 30.8% | viability, T/C [47] 18.9% | viability, T/C [49] 101% | viability, T/C [50] 84.2% | viability, T/C [51] 55.7% | viability, T/C [52] 34.2% | viability, T/C [53] 17.8% | viability, T/C [55] 99.5% | viability, T/C [56] 76.4% | viability, T/C [57] 55.3% | viability, T/C [58] 32.6% | viability, T/C [59] 19.6%
